Reference: patent US20080234318A1, “Chemical Compounds” (priority 2005, published 2008)

What follows are compounds tested on HIV-1 (assay: HOS HIV-1 infectivity assay). Settings: Human immunodeficiency virus 1, BAL / IIIB, HOS cells expressing hCXCR4/hCCR5/hCD4/pHIV-LTR-luciferase, virus strain (Ba-L or IIIB) not given, read-out: Activity Level.
Format: cell-based
Experimental: Compounds were profiled against two HIV-1 viruses, the M-tropic (CCR5 utilizing) Ba-L strain and the T-tropic (CXCR4 utilizing) IIIB strain. Both viruses were propagated in human peripheral blood lymphocytes. Compounds were tested for there ability to block infection of the HOS cell line (expressing hCXCR4/hCCR5/hCD4/pHIV-LTR-luciferase) by either HIV-1 Ba-L or HIV-1 IIIB. Compound cytotoxicity was also examined in the absence of virus addition.
HOS cells (expressing hCXCR4/hCCR5/hCD4/pHIV-LTR-luciferase) were harvested and diluted in Dulbeccos modified Eagles media supplemented with 2% FCS and non-essential amino acid to a concentration of 60,000 cells/ml. The cells were plated into 96-well plates (100 ul per well) and the plates were placed in a tissue culture incubator (37° C.; 5% CO2/95% air) for a period of 24h.
Subsequently, 50 ul of the desired drug solution (4 times the final concentration) was added to each well and the plates were returned to the tissue culture incubator (37° C.; 5% CO2/95% air) for 1h. Following this incubation 50 ul of diluted virus was added to each well (approximately 2 million RLU per well of virus). The plates were returned to the tissue culture incubator (37° C.; 5% CO2/95% air) and were incubated for a further 96h.
Following this incubation the endpoint for the virally infected cultures was quantified following addition of Steady-Glo Luciferase assay system reagent (Promega, Madison, Wis.). Cell viability or non-infected cultures was measured using a CellTiter-Glo luminescent cell viability assay system (Promega, Madison, Wis.). All luminescent readouts are performed on a Topcount luminescence detector (Packard, Meridien, Conn.).
Compound CN1CCN(c2cccc3nc(CN(C)[C@H]4CCCc5cccnc54)c(CNC(=O)OCc4ccccc4)n23)CC1 [Example 33, Phenylmethyl {[5-(4-methyl-1-piperazinyl)-2-({methyl[(8S)-5,6,7,8-tetrahydro-8-quinolinyl]amino}methyl)imidazor[1,2-a]pyridin-3-yl]methyl}carbamate] has an IC50 of less than 100 nM. With CN1CCN(c2cccc3nc(CN(C)[C@H]4CCCc5cccnc54)c(CNS(C)(=O)=O)n23)CC1 [Example 34, N-{[5-(4-Methyl-1-piperazinyl)-2-({methyl[(8S)-5,6,7,8-tetrahydro-8-quinolinyl]amino}methyl)imidazo[1,2-a]pyridine-3-yl]methyl}methanesulfonamide] the IC50 was less than 100 nM. Work on CCS(=O)(=O)NCc1c(CN(C)[C@H]2CCCc3cccnc32)nc2cccc(N3CCN(C)CC3)n12 [Example 35, N-{[5-(4-Methyl-1-piperazinyl)-2-({methyl[(8S)-5,6,7,8-tetrahydro-8-quinolinyl]amino}methyl)imidazo[1,2-a]pyridin-3-yl]methyl}ethanesulfonamide] yielded an IC50 of less than 100 nM. CC(C)S(=O)(=O)NCc1c(CN(C)[C@H]2CCCc3cccnc32)nc2cccc(N3CCN(C)CC3)n12 [Example 36, N-{[5-(4-Methyl-1-piperazinyl)-2-({methyl[(8S)-5,6,7,8-tetrahydro-8-quinolinyl]amino}methyl)imidazo[1,2-a]pyridin-3-yl]methyl}-2-propanesulfonamide] was tested, and the IC50 was less than 100 nM. Compound CN1CCN(c2cccc3nc(CN(C)[C@H]4CCCc5cccnc54)c(CNS(=O)(=O)c4ccccc4)n23)CC1 [Example 37, N-{[5-(4-Methyl-1-piperazinyl)-2-({methyl[(8S)-5,6,7,8-tetrahydro-8-quinolinyl]amino}methyl)imidazo[1,2-a]pyridin-3-yl]methyl}benzenesulfonamide] has an IC50 of less than 100 nM. CN1CCN(c2cccc3nc(CN(C)[C@H]4CCCc5cccnc54)c(CNS(=O)(=O)Cc4ccccc4)n23)CC1 [Example 38, N-{[5-(4-Methyl-1-piperazinyl)-2-({methyl[(8S)-5,6,7,8-tetrahydro-8-quinolinyl]amino}methyl)imidazo[1,2-a]pyridin-3-yl]methyl}-1-phenylmethanesulfonamide] gave an IC50 of less than 100 nM. In the case of CCNC(=O)NCc1c(CN(C)[C@H]2CCCc3cccnc32)nc2cccc(N3CCN(C)CC3)n12 [Example 39, N-Ethyl-N′-{[5-(4-methyl-1-piperazinyl)-2-({methyl[(8S)-5,6,7,8-tetrahydro-8-quinolinyl]amino}methyl)imidazo[1,2-a]pyridin-3-yl]methyl}urea], the IC50 is reported as less than 100 nM. Compound CC(C)NC(=O)NCc1c(CN(C)[C@H]2CCCc3cccnc32)nc2cccc(N3CCN(C)CC3)n12 [Example 40, N-(1-Methylethyl)-N′-{[5-(4-methyl-1-piperazinyl)-2-({methyl[(8S)-5,6,7,8-tetrahydro-8-quinolinyl]amino}methyl)imidazo[1,2-a]pyridin-3-yl]methyl}urea] has an IC50 of less than 100 nM. CN1CCN(c2cccc3nc(CN(C)[C@H]4CCCc5cccnc54)c(CNC(=O)Nc4ccccc4)n23)CC1 [Example 41, N-{[5-(4-Methyl-1-piperazinyl)-2-({methyl[(8S)-5,6,7,8-tetrahydro-8-quinolinyl]amino}methyl)imidazo[1,2-a]pyridin-3-yl]methyl}-N′-phenylurea] gave an IC50 of less than 100 nM. With CN1CCN(c2cccc3nc(CN(C)[C@H]4CCCc5cccnc54)c(CNC(=O)Nc4ccc(N(C)C)cc4)n23)CC1 [Example 42, N-[4-(Dimethylamino)phenyl]-N′-{[5-(4-methyl-1-piperazinyl)-2-({methyl[(8S)-5,6,7,8-tetrahydro-8-quinolinyl]amino}methyl)imidazo[1,2-a]pyridin-3-yl]methyl}urea] the IC50 was less than 100 nM. COc1ccc(NC(=O)NCc2c(CN(C)[C@H]3CCCc4cccnc43)nc3cccc(N4CCN(C)CC4)n23)cc1 [Example 43, N-[4-(Methyloxy)phenyl]-N′-{[5-(4-methyl-1-piperazinyl)-2-({methyl[(8S)-5,6,7,8-tetrahydro-8-quinolinyl]amino}methyl)imidazo[1,2-a]pyridin-3-yl]methyl}urea] gave an IC50 of less than 100 nM. CN1CCN(c2cccc3nc(CN(C)[C@H]4CCCc5cccnc54)c(CNC(N)=O)n23)CC1 [Example 44, N-{[5-(4-Methyl-1-piperazinyl)-2-({methyl[(8S)-5,6,7,8-tetrahydro-8-quinolinyl]amino}methyl)imidazo[1,2-a]pyridin-3-yl]methyl}urea] was tested, and the IC50 was less than 100 nM.
